Reference: the OligoGym collection
HELM strings list units from the 5' end as sugar, base in round brackets, then linkage (d deoxyribose, r ribose, m 2'-O-methyl, p phosphodiester). Strings are as the collection lists them; they lack the last nucleoside at the 3' end of the tested compound. [moe] = 2'-O-(2-methoxyethyl) (MOE); [sp] = phosphorothioate linkage; [m5C] = 5-methylcytosine

target: UBE3A-ATS; experiment: mouse, dose not given; conditions: ASO

Substance	3 h FOB score [score 0-7]
RNA1{[moe](A)[sp].[moe](G)p.[moe](G)p.[moe](T)p.[moe](G)p.d(T)[sp].d([m5C])[sp].d(T)[sp].d(T)[sp].d(A)[sp].d(T)[sp].d(A)[sp].d(T)[sp].d([m5C])[sp].d(T)[sp].[moe](A)p.[moe](T)p.[moe](G)[sp].[moe](A)}$$$$ (last 3' nucleoside missing)	0
RNA1{[moe](A)[sp].[moe](G)p.[moe](G)p.[moe](T)p.[moe]([m5C])p.[moe](A)p.d(A)[sp].d([m5C])[sp].d([m5C])[sp].d(A)[sp].d(A)[sp].d(T)[sp].d(T)[sp].d(T)[sp].d(G)[sp].d([m5C])[sp].[moe](T)p.[moe](A)[sp].[moe](T)}$$$$ (last 3' nucleoside missing)	5.3
RNA1{[moe](A)[sp].[moe](G)p.[moe](G)p.[moe](T)p.[moe]([m5C])p.d(A)[sp].d(A)[sp].d([m5C])[sp].d([m5C])[sp].d(A)[sp].d(A)[sp].d(T)[sp].d(T)[sp].d(T)[sp].d(G)[sp].[moe]([m5C])p.[moe](T)p.[moe](A)[sp].[moe](T)}$$$$ (last 3' nucleoside missing)	5.3
RNA1{[moe](A)[sp].[moe](G)p.[moe](G)p.[moe](T)p.d([m5C])[sp].d(A)[sp].d(A)[sp].d([m5C])[sp].d([m5C])[sp].d(A)[sp].d(A)[sp].d(T)[sp].d(T)[sp].d(T)[sp].[moe](G)p.[moe]([m5C])p.[moe](T)p.[moe](A)[sp].[moe](T)}$$$$ (last 3' nucleoside missing)	1
RNA1{[moe](A)[sp].[moe](G)p.[moe](G)p.[moe]([m5C])p.[moe](A)p.d(A)[sp].d(T)[sp].d(G)[sp].d(G)[sp].d(A)[sp].d([m5C])[sp].d(T)[sp].d(T)[sp].d(A)[sp].d(G)[sp].[moe](T)p.[moe](A)p.[moe]([m5C])[sp].[moe](A)}$$$$ (last 3' nucleoside missing)	4
RNA1{[moe](A)[sp].[moe](G)p.[moe](G)p.[moe]([m5C])p.[moe](A)p.d(T)[sp].d(T)[sp].d(T)[sp].d(G)[sp].d(G)[sp].d(A)[sp].d(G)[sp].d([m5C])[sp].d(A)[sp].d(T)[sp].[moe](T)p.[moe]([m5C])p.[moe](G)[sp].[moe](G)}$$$$ (last 3' nucleoside missing)	6.2
RNA1{[moe](A)[sp].[moe](G)p.[moe](T)p.[moe](A)p.[moe](T)p.d(A)[sp].d(G)[sp].d(A)[sp].d(T)[sp].d(G)[sp].d([m5C])[sp].d([m5C])[sp].d(T)[sp].d([m5C])[sp].d(T)[sp].[moe]([m5C])p.[moe]([m5C])p.[moe](T)[sp].[moe]([m5C])}$$$$ (last 3' nucleoside missing)	3.3
RNA1{[moe](A)[sp].[moe](G)p.[moe](T)p.[moe](G)p.[moe](G)p.d(T)[sp].d(T)[sp].d(G)[sp].d([m5C])[sp].d([m5C])[sp].d(T)[sp].d(T)[sp].d(A)[sp].d(G)[sp].d(T)[sp].[moe](A)p.[moe](T)p.[moe](T)[sp].[moe](A)}$$$$ (last 3' nucleoside missing)	6
RNA1{[moe](A)[sp].[moe](G)p.[moe](T)p.[moe](G)p.[moe](T)p.d([m5C])[sp].d(A)[sp].d(T)[sp].d(A)[sp].d(T)[sp].d(G)[sp].d(T)[sp].d(A)[sp].d(G)[sp].d([m5C])[sp].[moe](A)p.[moe](A)p.[moe](T)[sp].[moe](T)}$$$$ (last 3' nucleoside missing)	4
RNA1{[moe](A)[sp].[moe](G)p.[moe](T)p.[moe](G)p.[moe]([m5C])p.d([m5C])[sp].d(T)[sp].d(T)[sp].d(T)[sp].d([m5C])[sp].d(T)[sp].d(A)[sp].d(T)[sp].d(T)[sp].d(T)[sp].[moe]([m5C])p.[moe](A)p.[moe](G)[sp].[moe](A)}$$$$ (last 3' nucleoside missing)	0
RNA1{[moe](A)[sp].[moe](G)p.[moe](T)p.[moe](T)p.[moe](T)p.d(T)[sp].d([m5C])[sp].d(G)[sp].d([m5C])[sp].d([m5C])[sp].d([m5C])[sp].d(G)[sp].d(T)[sp].d(T)[sp].d(A)[sp].[moe]([m5C])p.[moe]([m5C])p.[moe](T)[sp].[moe]([m5C])}$$$$ (last 3' nucleoside missing)	4
RNA1{[moe](A)[sp].[moe](G)p.[moe](T)p.[moe]([m5C])p.[moe](T)p.d(T)[sp].d([m5C])[sp].d(A)[sp].d(T)[sp].d(T)[sp].d(A)[sp].d(T)[sp].d(T)[sp].d([m5C])[sp].d(T)[sp].[moe]([m5C])p.[moe](T)p.[moe](A)[sp].[moe](G)}$$$$ (last 3' nucleoside missing)	1
RNA1{[moe](A)[sp].[moe](G)p.[moe]([m5C])p.[moe](T)p.[moe](A)p.d(T)[sp].d([m5C])[sp].d(T)[sp].d(G)[sp].d(T)[sp].d(A)[sp].d([m5C])[sp].d(A)[sp].d(A)[sp].d(A)[sp].[moe](A)p.[moe](T)p.[moe](G)[sp].[moe](G)}$$$$ (last 3' nucleoside missing)	4
RNA1{[moe](A)[sp].[moe](G)p.[moe]([m5C])p.[moe](T)p.[moe](T)p.d(T)[sp].d(A)[sp].d(G)[sp].d(T)[sp].d(A)[sp].d(T)[sp].d(G)[sp].d(T)[sp].d([m5C])[sp].d(G)[sp].[moe](A)p.[moe](G)p.[moe](A)[sp].[moe](A)}$$$$ (last 3' nucleoside missing)	4.2
RNA1{[moe](A)[sp].[moe](G)p.[moe]([m5C])p.[moe](T)p.[moe]([m5C])p.d(A)[sp].d([m5C])[sp].d(T)[sp].d(G)[sp].d(A)[sp].d(A)[sp].d(A)[sp].d(G)[sp].d(A)[sp].d([m5C])[sp].[moe](A)p.[moe]([m5C])p.[moe](A)[sp].[moe](A)}$$$$ (last 3' nucleoside missing)	5
RNA1{[moe](A)[sp].[moe](G)p.[moe]([m5C])p.[moe]([m5C])[sp].d(A)[sp].d(G)[sp].d(G)[sp].d(T)[sp].d(G)[sp].d(T)[sp].d([m5C])[sp].d(T)[sp].[moe](T)p.[moe](A)p.[moe](T)p.[moe](A)[sp].[moe](T)}$$$$ (last 3' nucleoside missing)	6
RNA1{[moe](A)[sp].[moe](G)p.[moe]([m5C])p.[moe]([m5C])p.[moe](A)[sp].d(G)[sp].d(G)[sp].d(T)[sp].d(G)[sp].d(T)[sp].d([m5C])[sp].d(T)[sp].d(T)[sp].[moe](A)p.[moe](T)p.[moe](A)[sp].[moe](T)}$$$$ (last 3' nucleoside missing)	6
RNA1{[moe](A)[sp].[moe](G)p.[moe]([m5C])p.[moe]([m5C])p.[moe](A)p.[moe](G)[sp].d(G)[sp].d(T)[sp].d(G)[sp].d(T)[sp].d([m5C])[sp].d(T)[sp].d(T)[sp].d(A)[sp].[moe](T)p.[moe](A)[sp].[moe](T)}$$$$ (last 3' nucleoside missing)	0
RNA1{[moe](A)[sp].[moe](G)p.[moe]([m5C])p.[moe]([m5C])p.[moe](A)p.[moe](G)p.d(G)[sp].d(T)[sp].d(G)[sp].d(T)[sp].d([m5C])[sp].d(T)[sp].d(T)[sp].d(A)[sp].d(T)[sp].d(A)[sp].[moe](T)p.[moe]([m5C])[sp].[moe](T)}$$$$ (last 3' nucleoside missing)	0
RNA1{[moe](A)[sp].[moe](G)p.[moe]([m5C])p.[moe]([m5C])p.[moe](A)p.d(G)[sp].d(G)[sp].d(T)[sp].d(G)[sp].d(T)[sp].d([m5C])[sp].d(T)[sp].d(T)[sp].d(A)[sp].d(T)[sp].[moe](A)p.[moe](T)p.[moe]([m5C])[sp].[moe](T)}$$$$ (last 3' nucleoside missing)	2.3
RNA1{[moe](A)[sp].[moe](G)p.[moe]([m5C])p.[moe]([m5C])p.d(A)[sp].d(G)[sp].d(G)[sp].d(T)[sp].d(G)[sp].d(T)[sp].d([m5C])[sp].d(T)[sp].d(T)[sp].d(A)[sp].[moe](T)p.[moe](A)p.[moe](T)p.[moe]([m5C])[sp].[moe](T)}$$$$ (last 3' nucleoside missing)	4
RNA1{[moe](A)[sp].[moe](T)[sp].[moe]([m5C])[sp].[moe](A)[sp].[moe](T)[sp].d(G)[sp].d(T)[sp].d(G)[sp].d([m5C])[sp].d(A)[sp].d(T)[sp].d(A)[sp].d([m5C])[sp].d([m5C])[sp].d([m5C])[sp].[moe](A)[sp].[moe](G)[sp].[moe](G)[sp].[moe](G)}$$$$ (last 3' nucleoside missing)	5.2
RNA1{[moe](A)[sp].[moe](T)p.[moe](A)p.[moe](G)p.[moe]([m5C])p.d([m5C])[sp].d([m5C])[sp].d(T)[sp].d(T)[sp].d(T)[sp].d([m5C])[sp].d(A)[sp].d(G)[sp].d([m5C])[sp].d(A)[sp].[moe]([m5C])p.[moe](A)p.[moe]([m5C])[sp].[moe](T)}$$$$ (last 3' nucleoside missing)	3.5
RNA1{[moe](A)[sp].[moe](T)p.[moe](G)p.[moe](A)p.[moe](T)p.d([m5C])[sp].d(A)[sp].d(T)[sp].d(A)[sp].d([m5C])[sp].d(T)[sp].d(G)[sp].d(G)[sp].d(A)[sp].d(G)[sp].[moe]([m5C])p.[moe]([m5C])p.[moe](A)[sp].[moe](G)}$$$$ (last 3' nucleoside missing)	5.8
RNA1{[moe](A)[sp].[moe](T)p.[moe](G)p.[moe](A)p.[moe]([m5C])p.d(A)[sp].d(T)[sp].d(A)[sp].d(A)[sp].d([m5C])[sp].d([m5C])[sp].d(A)[sp].d(T)[sp].d(A)[sp].d(T)[sp].[moe](A)p.[moe]([m5C])p.[moe](A)[sp].[moe](A)}$$$$ (last 3' nucleoside missing)	0
RNA1{[moe](A)[sp].[moe](T)p.[moe](G)p.[moe](G)p.[moe](G)p.d(A)[sp].d(G)[sp].d([m5C])[sp].d(T)[sp].d([m5C])[sp].d(T)[sp].d(G)[sp].d(G)[sp].d(A)[sp].d(A)[sp].[moe](A)p.[moe](A)p.[moe]([m5C])[sp].[moe](A)}$$$$ (last 3' nucleoside missing)	4
